In ChEMBL document CHEMBL1201862, “PubChem BioAssay data set” (2004):
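Interpolation was linear, between the two tested concentrations surrounding the appropriate level; five concentrations were tested over 48 hours in 96-well plates. Abbreviation: GI50, concentration required for 50% inhibition of growth.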 Activity calls are given as the source filed them. Cut-off read from the data, not from the text of the source: active = GI50 up to about 1.1 µM and inactive = higher.

How the values were obtained:
Experiment in all cases: DTP human tumour cell line panel, 48 h
786-0 = system: 786-0
A549 = system: A549
ACHN = system: ACHN
BT-549 = system: BT-549
HT-29 = system: HT-29
Hs-578T = system: Hs-578T
MDA-MB-435 = system: MDA-MB-435
MOLT-4 = system: MOLT-4
NCI-H226 = system: NCI-H226
NCI-H23 = system: NCI-H23
NCI-H522 = system: NCI-H522
OVCAR-4 = system: OVCAR-4
OVCAR-8 = system: OVCAR-8
SK-MEL-28 = system: SK-MEL-28
SK-MEL-2 = system: SK-MEL-2
SR = system: SR
SW-620 = system: SW-620
TK-10 = system: TK-10
UACC-62 = system: UACC-62
HOP-18 = system: HOP-18

| SMILES | GI50 (786-0) | GI50 (A549) | GI50 (ACHN) | GI50 (BT-549) | GI50 (HT-29) | GI50 (Hs-578T) | GI50 (MDA-MB-435) | GI50 (MOLT-4) | GI50 (NCI-H226) | GI50 (NCI-H23) | GI50 (NCI-H522) | GI50 (OVCAR-4) | GI50 (OVCAR-8) | GI50 (SK-MEL-28) | GI50 (SK-MEL-2) | GI50 (SR) | GI50 (SW-620) | GI50 (TK-10) | GI50 (UACC-62) | GI50 (HOP-18) |
| --- | --- | --- | --- | --- | --- | --- | --- | --- | --- | --- | --- | --- | --- | --- | --- | --- | --- | --- | --- | --- |
| CSc1cccc(NC(=O)OC2CCCCCCCCCCC2)c1 | 20.9 µM (inactive) | 26.9 µM (inactive) | 27.7 µM (inactive) | 34.8 µM (inactive) | 16.6 µM (inactive) | 34.4 µM (inactive) | 15.7 µM (inactive) | 23.5 µM (inactive) | 29.9 µM (inactive) | 24.4 µM (inactive) | 13.2 µM (inactive) | 10.4 µM (inactive) | 26.7 µM (inactive) | 39.7 µM (inactive) | 18.4 µM (inactive) | 26.9 µM (inactive) | 18.8 µM (inactive) | 26.9 µM (inactive) | 18.1 µM (inactive) |  |
| CCOC(=O)/C=C(/C(=O)OCC)n1cc(C)c(=O)n(Cc2cn(COCCOC(C)=O)nn2)c1=O | 20 µM (inactive) | > 100 µM (inactive) | 7.06 µM (inactive) | 19.9 µM (inactive) | 16.1 µM (inactive) | 26.3 µM (inactive) | 18.3 µM (inactive) | 15 µM (inactive) | 21.1 µM (inactive) | 6.18 µM (inactive) | 2.49 µM (inactive) | 20 µM (inactive) | 16.2 µM (inactive) | 19.8 µM (inactive) | 45.8 µM (inactive) | 20.9 µM (inactive) | 6.84 µM (inactive) | 14.2 µM (inactive) | 17.1 µM (inactive) |  |
| COC(=O)/C(=N\NC(N)=O)C(C#N)c1ccccc1 (stereo not given) | > 100 µM (inactive) | > 100 µM (inactive) | > 100 µM (inactive) |  | > 100 µM (inactive) |  |  | > 100 µM (inactive) | > 100 µM (inactive) | > 100 µM (inactive) | > 100 µM (inactive) | > 100 µM (inactive) | > 100 µM (inactive) | > 100 µM (inactive) | > 100 µM (inactive) |  | > 100 µM (inactive) | > 100 µM (inactive) | > 100 µM (inactive) | > 100 µM (inactive) |
| Cc1c2ccccc2cc2ccc3oc([N+](=O)[O-])cc3c12 | > 100 µM (inactive) | > 100 µM (inactive) | 4.73 µM (inactive) |  | > 100 µM (inactive) |  |  | > 100 µM (inactive) |  |  |  | > 100 µM (inactive) | > 100 µM (inactive) |  | 5.47 µM (inactive) |  | > 100 µM (inactive) | > 100 µM (inactive) | > 100 µM (inactive) | 2 µM (inactive) |
| Cc1cc(=O)[nH]c2c1C(=O)c1c(C)cc(=O)n(C)c1C2=O | 0.0545 µM (active) | 0.188 µM (active) | 0.0995 µM (active) | 0.0228 µM (active) | 0.043 µM (active) | 0.0262 µM (active) | 0.0142 µM (active) | 0.212 µM (active) | 0.0293 µM (active) | 0.0142 µM (active) | 0.046 µM (active) | 0.195 µM (active) | 0.0832 µM (active) | 0.0191 µM (active) | 0.0208 µM (active) | 0.125 µM (active) | 0.0419 µM (active) | 0.192 µM (active) | 0.0171 µM (active) |  |
| COc1ccc(/C=C2\N=C(c3ccccc3)OC2=O)c(OCc2ccccc2)c1 | 20.1 µM (inactive) | 41.5 µM (inactive) | > 100 µM (inactive) |  |  |  |  | 14.1 µM (inactive) | 53.2 µM (inactive) |  | 24.6 µM (inactive) | 22.1 µM (inactive) | 22.9 µM (inactive) | > 100 µM (inactive) |  | 21.7 µM (inactive) | > 100 µM (inactive) |  | 19.7 µM (inactive) | > 100 µM (inactive) |
| O/N=C1\CCCCC1C(NO)c1ccccc1 (stereo not given) | > 100 µM (inactive) | > 100 µM (inactive) | > 100 µM (inactive) |  | > 100 µM (inactive) |  |  | 69.3 µM (inactive) |  | > 100 µM (inactive) | 81.5 µM (inactive) | > 100 µM (inactive) | > 100 µM (inactive) | > 100 µM (inactive) | > 100 µM (inactive) |  | > 100 µM (inactive) | > 100 µM (inactive) | > 100 µM (inactive) | > 100 µM (inactive) |
| Clc1ccc2c(NCCCCN3OC3c3ccccc3)ccnc2c1 (stereo not given) | 2.47 µM (inactive) | 5.62 µM (inactive) | 9.44 µM (inactive) | 13.4 µM (inactive) | 3.16 µM (inactive) | 14.6 µM (inactive) | 4.47 µM (inactive) | 2.15 µM (inactive) | 18.4 µM (inactive) | 15.8 µM (inactive) | 6.41 µM (inactive) | 4.27 µM (inactive) | 3.71 µM (inactive) | 3.64 µM (inactive) | 4.79 µM (inactive) | 1.69 µM (inactive) | 5.21 µM (inactive) | 10.3 µM (inactive) | 14.1 µM (inactive) |  |
| CC(Oc1ccc(OCC2CCCCC2)cc1)C(N)=O (stereo not given) | > 100 µM (inactive) | > 100 µM (inactive) | > 100 µM (inactive) |  | > 100 µM (inactive) |  |  | > 100 µM (inactive) | > 100 µM (inactive) | > 100 µM (inactive) | 87.9 µM (inactive) | > 100 µM (inactive) | > 100 µM (inactive) | > 100 µM (inactive) | > 100 µM (inactive) |  | > 100 µM (inactive) | > 100 µM (inactive) | > 100 µM (inactive) | > 100 µM (inactive) |
| O=C1CCC(=O)C12CCc1ccccc12 | > 100 µM (inactive) | > 100 µM (inactive) | > 100 µM (inactive) |  | > 100 µM (inactive) |  |  |  |  | > 100 µM (inactive) |  | > 100 µM (inactive) | > 100 µM (inactive) | > 100 µM (inactive) |  |  | > 100 µM (inactive) | > 100 µM (inactive) | > 100 µM (inactive) | > 100 µM (inactive) |
| CCOC(=O)/C=C(\C(=O)OCC)n1ccc(=O)n(CC(=O)OCC)c1=O | 1.82 µM (inactive) | 17.2 µM (inactive) | 1.64 µM (inactive) | 11.7 µM (inactive) | 5.9 µM (inactive) | 20 µM (inactive) | 5.85 µM (inactive) | 1.43 µM (inactive) | 6.52 µM (inactive) | 8.07 µM (inactive) | 1 µM (active) | 3.66 µM (inactive) | 5.25 µM (inactive) | 6.25 µM (inactive) | 14 µM (inactive) | 2.17 µM (inactive) | 1.23 µM (inactive) | 2.57 µM (inactive) | 7.36 µM (inactive) |  |
| CCOC(=O)C(Cc1c(C=O)[nH]c2ccccc12)(NC(=O)c1ccccc1)C(=O)OCC | 16.7 µM (inactive) | 19.1 µM (inactive) | 14.4 µM (inactive) |  | 16.4 µM (inactive) |  |  | 6.65 µM (inactive) | 19.5 µM (inactive) | 13.7 µM (inactive) |  |  | 19.1 µM (inactive) | 16.9 µM (inactive) | 16.5 µM (inactive) | > 100 µM (inactive) | 14.2 µM (inactive) | 22.4 µM (inactive) |  | > 10 µM (inactive) |
| c1ccc(CSc2nc3ccccc3nc2-c2cccs2)cc1 | > 100 µM (inactive) | > 100 µM (inactive) | > 100 µM (inactive) |  | > 100 µM (inactive) |  |  | > 100 µM (inactive) | > 100 µM (inactive) | > 100 µM (inactive) | 41.3 µM (inactive) | > 100 µM (inactive) | > 100 µM (inactive) | > 100 µM (inactive) | > 100 µM (inactive) |  |  | > 100 µM (inactive) |  | > 100 µM (inactive) |
| Cc1ccccc1NC(=O)c1cc(-c2ccc([N+](=O)[O-])cc2)nc(S)n1 | > 100 µM (inactive) | > 100 µM (inactive) | > 100 µM (inactive) |  | > 100 µM (inactive) |  |  | > 100 µM (inactive) | > 100 µM (inactive) | > 100 µM (inactive) |  | > 100 µM (inactive) | > 100 µM (inactive) | > 100 µM (inactive) | > 100 µM (inactive) |  | > 100 µM (inactive) | > 100 µM (inactive) | > 100 µM (inactive) | > 100 µM (inactive) |
| COC(=O)[C@]1(C)CCC[C@]2(C)[C@@H](CCC(=O)C(C)C)[C@]3(C=O)O[C@@H]3C[C@H]21 | 32.4 µM (inactive) | > 100 µM (inactive) | 27 µM (inactive) | 24.7 µM (inactive) | 38.9 µM (inactive) | 41.6 µM (inactive) | 28.2 µM (inactive) | 29.9 µM (inactive) | 60.1 µM (inactive) | 28.1 µM (inactive) | 16.8 µM (inactive) | 24.7 µM (inactive) | 39.4 µM (inactive) | > 100 µM (inactive) | 34.1 µM (inactive) | 30.7 µM (inactive) | 47.6 µM (inactive) | 51.8 µM (inactive) | 50.2 µM (inactive) |  |
| COc1cc(C[C@@H](C)N)cc(OC)c1 | > 100 µM (inactive) | > 100 µM (inactive) | > 100 µM (inactive) | > 100 µM (inactive) | > 100 µM (inactive) | > 100 µM (inactive) | > 100 µM (inactive) | > 100 µM (inactive) | > 100 µM (inactive) | > 100 µM (inactive) | > 100 µM (inactive) | > 100 µM (inactive) | > 100 µM (inactive) | > 100 µM (inactive) | > 100 µM (inactive) | > 100 µM (inactive) | > 100 µM (inactive) | > 100 µM (inactive) | > 100 µM (inactive) |  |
| COC(=O)C1=Cc2cc3c(cc2[C@H](c2ccc4c(c2)OCO4)C1C(=O)OC)OCO3 (stereo not given in full) | > 100 µM (inactive) | > 100 µM (inactive) | 43.9 µM (inactive) |  | 36.2 µM (inactive) |  |  | 35.6 µM (inactive) | > 100 µM (inactive) | > 100 µM (inactive) |  | 61.9 µM (inactive) | > 100 µM (inactive) | > 100 µM (inactive) |  | 59.4 µM (inactive) | 71.3 µM (inactive) | > 100 µM (inactive) | 58.6 µM (inactive) | > 100 µM (inactive) |
